The subject of data set [1] is submissive rats. The data set is described as follows: Dominant-Submissive Competition: Reduction of Submissive Behavior Model (RSBM). It is filed as in vivo, Male Sprague Dawley rats. The procedure: Dominance and submissiveness, defined in a competition test and measured as the relative success of two food-restricted rats to gain access to a feeder, form a behavioral paradigm—the Dominant Submissive Relationship (DSR). This paradigm results in two models which are predictive of ability of test compounds (drugs) to treat mood disorders.
Test compounds are evaluated for either their ability to inhibit the dominant behavior of rats taking food at the expense of an opponent (reduction of dominant behavior model or RDBM) and thus their potential as treatments for mania; or for their ability to increase the competitive behavior of submissive rats losing such encounters (reduction of submissive behavior model or RSBM) and thus their potential as treatments for depression; (Malatynska, E., and Knapp, R. J., Neuroscience and Biobehavioral Review, 29 (2005) 715-737). […]
The basic testing apparatus consisted of two chambers connected with a tunnel only large enough to allow one rat to pass through at a time. […] During the five-minute daily sessions, time spent in the feeder zone by each rat was recorded by the video tracking software and saved into a text file.
The test began with a random assignment of rats into pairs. […] The time spent in the feeder zone by each animal was recorded. […]

Data set [2] can be described thus: Drug concentration in terminal plasma and brain of RSBM rats (LC-MS-MS). Particulars: submissive rats treated with increasing doses (6, 30, 60 mg/kg p.o. BID). It is filed as in vivo, Male Sprague Dawley rats. The text has this:
Rats were housed four per cage. Access to food was restricted to one hour per day after testing on Monday through Thursday. After testing on Friday, rats had free access to food until being fasted again on Sunday. At no time were the rats deprived of water. The food deprivation periods used had little effect on weight gain as the average weight of rats was about 300 g at the end of the study. At the conclusion of experiment rats were sacrificed by decapitation, the trunk blood and brains were collected for in vitro experiments and drug concentration measurements.
Terminal blood samples (0.5-1.0 mL) were collected post experiment into heparinized tubes. Blood samples were centrifuged for cell removal, and 200 μL of plasma supernatant was then transferred to a clean vial, placed on dry ice, and subsequently stored in a −80° C. freezer prior to analysis. Two hundred microliters of acetonitrile containing internal standard was added to 100 μL of plasma or brain tissue to precipitate proteins and/or tissue residues. Samples were centrifuged and supernatant removed for analysis by liquid chromatography-triple quadruple mass spectrometry (LC-MS-MS). […] Calibration standards were prepared in the range of 0.01 to 10 μM for quantitation. […]

Data set [3] deals with Male NMRI mice. The data set can be described thus: Mouse Tail Suspension In Vivo Assay. Particulars: for Immobilization Time (sec); (mean ± SEM): single dose 30 min prior to tail suspension. As for the experimental part:
The tail suspension test (TST) is an acute test of anti-depressant activity.
Male NMRI mice (25-30 g; n=13-15 mice per dose) were given a single dose of vehicle (aqueous solution of 1 equivalent tartaric acid+0.45% NaCl+10% cyclodextrin, i.p.), imipramine (20 mg/kg, i.p. in an aqueous solution of 0.9% NaCl) or Compound #1 (at 5, 10, 20, 40 or 80 mg/kg, i.p.) 30 min prior to tail suspension. In this test, the mice were submitted to an unpleasant and inescapable situation (hanging by the tail) for 6 min. Once suspended, motor activity diminished rapidly and the mice became immobile. A compound was considered active as an antidepressant in this model, when there was a reduction in immobility time. Viewpoint video-tracking software was utilized to record immobility time.
Therefore, a compound which is not active in this model may nonetheless be active as an antidepressant.

The test system of data set [4] is Male C57BL/6 mice. The data set can be described thus: Mouse Forced Swim Test. The class given is in vivo. The settings on record: not statistically significant (p=0.19). As for the experimental part:
The forced swim test (FST) is an acute test of anti-depressant activity. Note that in this test, antidepressant-like compounds such as tricyclics, MAO inhibitors, SSRIs and others show activity, although the level of measured activity can vary with strain differences.
Male C57BL/6 mice (˜25 g; n=10 mice per dose) were given a single dose of vehicle (an aqueous solution of 1 equivalent tartaric acid+0.45% NaCl+10% cyclodextrin, s.c.), Compound #1 (at 5, 10, 20, 40 or 80 mg/kg, s.c.) or imipramine (10 mg/kg, i.p. in an aqueous solution of 0.9% NaCl) 30 min prior to entrance into the swim chamber. In this test, mice were placed in a water-filled cylinder in which they were unable to escape or touch the bottom of the chamber for 6 min. Once immersed in water, motor activity diminished rapidly and the mice became immobile. Viewpoint video-tracking software was utilized to record immobility time. Other common behaviors such as swimming and climbing activity were not measured in this study.

`NS(=O)(=O)NCc1csc2ccccc12` [Compound #1, N-(benzorblthien-3-vimethyl)-sulfamide]: the “statistical significance of the reduction of submissive behavior” value in data set [1] (after 17 days of treatment with 60 mg/kg, p<0.01) was “statistically significant”. Also, the “reduction of submissive behavior” value in data set [1] (submissive rats treated p.o. BID at 6, 30 or 60 mg/kg) is given as “reduced submissive behavior in a dose-dependent manner”. In data set [2], the “exposure in plasma and brain” value was “linear increase in exposure both in plasma and brain”. In addition, the “Immobilization Time (sec); (mean ± SEM)” value is 66.1 ± 10.1 s in data set [3] (5 mpk i.p.); 96.4 ± 12.4 s in data set [3] (10 mpk i.p.); 110.1 ± 15.8 s in data set [3] (20 mpk i.p.); 100.5 ± 13.9 s in data set [3] (40 mpk i.p.); 160 s in data set [3] (80 mpk i.p., increase resembled sedation (p=0.003)); 160.4 ± 10.7 s in data set [3] (80 mpk i.p., increase resembled sedation (p=0.003), listed as #1).

For the compound `CN(C)CCCN1c2ccccc2CCc2ccccc21` [Imipramine, reference compound], the “decrease in immobility time” value stood at 75% in data set [3] (20 mg/kg i.p. versus vehicle (71 sec), p=0.0004) and 20% in data set [4] (10 mg/kg i.p. versus vehicle (152 sec)). Also, the “Immobilization Time (sec); (mean ± SEM)” value in data set [3] (20 mpk i.p.) amounted to 18.0 ± 5.8 s; in data set [3] (20 mpk i.p., listed as imipramine), 18 s. This compound also displayed an immobility time in data set [4] (10 mg/kg i.p., vehicle=152 sec) of 122 s.

These data come from patent US20070191449A1, “Use of Benzo-Heteroaryl Sulfamide Derivatives for the Treatment of Depression” (priority 2006, published 2007).
